{
  "source": "patent US4229466A",
  "about": "“Sesquiterpene derivatives having anti-complementary activity” (Otsuka Pharmaceutical Co., Ltd., priority 1977, dated 1980)",
  "key": {"[1]": {"experiment": "Acute toxicity on intravenous administration to mice", "conditions": "mouse, in vivo"}, "[2]": {"system": "complement serum (guinea pig complement)", "experiment": "Anti-complement activity: 50% inhibition of hemolysis of sensitized erythrocytes", "assay_type": "cell-based", "conditions": "Cavia porcellus, Erythrocyte, 1 h, 37° C., 60 minutes, guinea pig complement diluted 150 times, OD413, read-out: Anti-Complement Activity Value (50% hemolysis inhibitory activity value)", "description": "The anti-complement activity was measured and confirmed by the testing method described in Meneki Kagaku (Immuno-Chemistry), Yuichi Yamamura et al., Ed. pages 830-834, Asakura Shoten, Tokyo, Japan (1973). Specifically,a test tube was charged with 0.5 ml of an aqueous dispersion of each of the test compounds, 0.5 ml of sensitized erythrocytes (EA) containing 1×10^8 cells/ml, 1 ml of a 5-fold diluted solution of a Veronal buffer solution containing gelatin, Ca^++ and Mg^++ (GVB^++), and 0.5 ml of complement serum (guinea pig complement) diluted to 150 times with the GVB^++. The mixture was maintained hot at 37° C. for 60 minutes. Then, 5 ml of an ice-cold physiological saline solution was added thereto, and the mixture was centrifuged. […] The 50% hemolysis inhibitory activity value (γ/ml) measured by the above method is shown in Table 2 below for each test compound."}, "[3]": {"system": "Heymann-type Nephritis", "experiment": "Therapeutic effects on Heymann-type nephritis (proteinuria)", "assay_type": "in vivo, male Wistar rats", "conditions": "for amount of proteinurea, Average: average of 3 replications; for amount of proteinurea: individual replication", "description": "Male Wistar rats with a body weight of 180 to 200 g were used in the test. Rat kidney cortex was extracted, and homogenized with an equal quantity by volume of a physiological saline solution. The homogenate was centrifuged at 1500 G for 1 hour. The supernatant liquid was purified in accordance with the method of T. S. […] The resulting mixture was injected intraperitoneally into isologous rats in an amount of 0.5 ml per rat. […] (This period was about 6 to 8 weeks.) […] CP was used as a comparison compound, and physiological saline solution was used as a control. Three replications were conducted for each test compound."}, "[4]": {"system": "Nephrotoxin-Type Nephritis", "experiment": "Therapeutic effect on nephrotoxin-type nephritis (proteinuria)", "assay_type": "in vivo, male Wistar rats", "conditions": "for amount of proteinurea, Average: average of 3 replications; for amount of proteinurea, Average / amount of proteinurea: 5 mg per rat i.p. once daily, 7 days; for amount of proteinurea: individual replication", "excerpt": "Rat nephrotoxin (\"NT\" for brevity) was obtained as described below. Rat kidney cortex was homogenized with an equal quantity of physiological saline. The homogenized mixture was mixed with Freund's complete adjuvant (a product of Difco Company) in a volume ratio of 1:1. Two milliliters of the resulting mixture was intramuscularly injected into a rabbit (body weight 3,100 g) to immunize the rabbit. A month and a half later, blood was taken from the heart of the rabbit and serum was obtained. The resulting serum was inactivated at 56° C. for 30 minutes, then salted out with a 40% saturated aqueous solution of ammonium sulfate, and fractionated. The γ-globulin (IgG) fraction was collected to obtain NT.\nThe evaluation was carried out using male Wistar rats with a body weight of 150 to 160 g with three replications for each test compound. The test compound was intraperitoneally administered once every 24 hours for seven days. One hour after the administration of the test compound on the third day, the NT was applied. The NT was intravenously injected in an amount of 1 ml at a tail vein of each rat. Chlorophyllin (CP) was used as a comparison compound, and physiological saline solution was used as a control.\nThe proteinuria level (total amount excreted into the urine over a 24 hour period) was measured using turbidometry employing bovine serum albumin as a control by means of sulfosalicylic acid."}, "[5]": {"conditions": "Before Administration, group of 5 mg per rat i.p."}, "[6]": {"conditions": "Day 1, 5 mg per rat i.p. once a day, 7 days"}, "[7]": {"conditions": "Day 4, 5 mg per rat i.p. once a day, 7 days"}, "[8]": {"conditions": "Day 7, 5 mg per rat i.p. once a day, 7 days"}, "[9]": {"conditions": "Day 14, 5 mg per rat i.p. once a day, 7 days"}, "[10]": {"conditions": "Day 21, 5 mg per rat i.p. once a day, 7 days"}},
  "note": "Values joined by “and” are separate entries in the source; they are usually repeats but may differ in a detail not shown here. Equal values may be shown once.",
  "data": [
    {"smiles": "CC1CCC2C(C)(C)C(O)C(O)CC2(C)C12Cc1c(O)cc(C=CC(=O)O)c(C=CC(=O)O)c1O2", "note": "(centres unmarked) [(7), 6,7-Dihydroxy-2,5,5,8a-tetramethyl-1,2,3,4,4a,5,6,7,8,8a-decahydronaphthalene-1-spiro-2'-[6',7'-di-(2-carboxyvinyl)-4'-hydroxy-2',3'-dihydrobenzofuran]]", "values": [
      {"measurement": "LD50", "setting": "[1]", "value": 150, "unit": "mg/kg"},
      {"measurement": "IC50", "setting": "[2]", "value": 80, "unit": "µg/mL"},
      {"measurement": "activity of curing Heymann-type nephritis", "setting": "[3]; test of Table 4, result in words", "value": "a substantial activity of curing Heymann-type nephritis"},
      {"measurement": "inhibition of the primary reaction of nephrotoxin-type nephritis", "setting": "[4]; same test as Table 3, result in words", "value": "found to inhibit the primary reaction"}
    ]},
    {"smiles": "CC1CCC2C(C)(C)C(O)C(O)CC2(C)C12Cc1c(O)cc(C=O)c(C(=O)O)c1O2", "note": "(centres unmarked) [(67), Disodium 6,7-dihydroxy-2,5,5,8a-tetramethyl-1,2,3,4,4a,5,6,7,8,8a-decahydronaphthalene-1-spiro-2'-(7'carboxylate-6'-formyl-4'-oxide-2',3'-dihydrobenzofuran)]", "values": [
      {"measurement": "LD50", "setting": "[1]", "value": 500, "unit": "mg/kg"},
      {"measurement": "IC50", "setting": "[2]", "value": 60, "unit": "µg/mL"},
      {"measurement": "amount of proteinurea, Average", "setting": "[3]; [5]", "value": 118, "unit": "mg/day"},
      {"measurement": "amount of proteinurea", "setting": "[3]; [5]", "value": "117 mg/day and 132 mg/day and 105 mg/day"},
      {"measurement": "amount of proteinurea, Average", "setting": "[3]; [6]", "value": 117, "unit": "mg/day"},
      {"measurement": "amount of proteinurea", "setting": "[3]; [6]", "value": "109 mg/day and 127 mg/day and 114 mg/day"},
      {"measurement": "amount of proteinurea, Average", "setting": "[3]; [7]", "value": 59, "unit": "mg/day"},
      {"measurement": "amount of proteinurea", "setting": "[3]; [7]", "value": "59 mg/day and 67 mg/day and 51 mg/day"},
      {"measurement": "amount of proteinurea, Average", "setting": "[3]; [8]", "value": 30, "unit": "mg/day"},
      {"measurement": "amount of proteinurea", "setting": "[3]; [8]", "value": "23 mg/day and 41 mg/day and 25 mg/day"},
      {"measurement": "amount of proteinurea, Average", "setting": "[3]; [9]", "value": 14, "unit": "mg/day"},
      {"measurement": "amount of proteinurea", "setting": "[3]; [9]", "value": "13 mg/day and 17 mg/day and 11 mg/day"},
      {"measurement": "amount of proteinurea, Average", "setting": "[3]; [10]", "value": 11, "unit": "mg/day"},
      {"measurement": "amount of proteinurea", "setting": "[3]; [10]", "value": "9 mg/day and 13 mg/day and 12 mg/day"},
      {"measurement": "amount of proteinurea, Average", "setting": "[4]; Day 1", "value": 3.0, "unit": "mg/day"},
      {"measurement": "amount of proteinurea", "setting": "[4]; Day 1", "value": "2.7 mg/day and 4.1 mg/day and 2.3 mg/day"},
      {"measurement": "amount of proteinurea, Average", "setting": "[4]; Day 4", "value": 1.7, "unit": "mg/day"},
      {"measurement": "amount of proteinurea", "setting": "[4]; Day 4", "value": "1.8 mg/day and 2.0 mg/day and 1.3 mg/day"},
      {"measurement": "amount of proteinurea, Average", "setting": "[4]; Day 7", "value": 1.1, "unit": "mg/day"},
      {"measurement": "amount of proteinurea", "setting": "[4]; Day 7", "value": "0.7 mg/day and 1.5 mg/day and 1.2 mg/day"},
      {"measurement": "amount of proteinurea, Average", "setting": "[4]; Day 10", "value": 9, "unit": "mg/day"},
      {"measurement": "amount of proteinurea", "setting": "[4]; Day 10", "value": "9 mg/day and 12 mg/day and 7 mg/day"}
    ]}
  ]
}
